{"source": "patent US11549123B2", "about": "“Plant EPSP synthases and methods of use” (PIONEER HI-BRED INTERNATIONAL, INC., priority 2015, dated 2023)", "type_in_all_cases": "biochemical", "key": {"[1]": {"biological_target": "Zea mays EPSPS variant Zm-G102A (Zea mays, UniProt O24566, G101A)", "sequence (O24566 entry or part of it G101A)": "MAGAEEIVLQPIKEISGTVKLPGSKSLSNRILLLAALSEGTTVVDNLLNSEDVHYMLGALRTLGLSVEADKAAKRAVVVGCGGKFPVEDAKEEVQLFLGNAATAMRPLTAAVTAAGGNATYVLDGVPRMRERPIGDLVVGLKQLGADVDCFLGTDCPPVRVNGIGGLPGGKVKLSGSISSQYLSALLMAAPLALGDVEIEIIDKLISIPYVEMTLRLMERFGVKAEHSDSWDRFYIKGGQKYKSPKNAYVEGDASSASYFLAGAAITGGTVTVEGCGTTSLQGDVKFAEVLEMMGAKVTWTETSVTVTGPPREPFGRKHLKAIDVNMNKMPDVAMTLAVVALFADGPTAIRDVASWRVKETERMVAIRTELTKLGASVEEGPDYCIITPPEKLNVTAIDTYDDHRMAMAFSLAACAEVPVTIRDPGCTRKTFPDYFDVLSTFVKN", "assay": "Rapid two-rate method for (kcat/KM)*KI, Zm-G102A", "details": "[E] 0.07 uM, [Gly] 1000 uM", "excerpt": "(§1) There are several practical considerations for accurately estimating (kcat/KM)*KI with the rapid method. […] 2) The inhibitor concentration must be adjusted so as to obtain a degree of inhibition that minimally amplifies the error in the term v0-vi in Equation 3. If inhibition is too little, v0-vi will be small, and the error in the multiplier vi×v0/(v0-vi) will be large. […] 3) Substrate concentration should be set at the approximate KM of the parental variant(s), subject to the sensitivity of the assay. High substrate concentration obscures sensitivity to the inhibitor and reduces stringency for capturing improvements in KM. Depending on the necessity for speed, there exists opportunity for customizing enzyme and inhibitor concentrations. […] The rapid method was repeated for those and obtained data that correlated better with data obtained by substrate saturation analysis. For screening purposes however, that correlation step is not necessary. Conditions can be set so that variants with a pre-determined minimal fitness level are accurately quantified.\n(§2) In Table 15, parameters above the heavy line for the rapid method were obtained under standard conditions. For variants shown below the heavy line, the rapid analysis was repeated with enzyme or glyphosate concentrations adjusted as needed to generate sufficient signal within the limits for linear initial rates."}, "[2]": {"biological_target": "Zea mays EPSPS variant 4N (Zea mays, UniProt O24566, A3N)", "sequence (O24566 entry or part of it A3N)": "as the sequence (O24566 entry or part of it G101A) above, with A4N, A102G counted along it", "assay": "EPSPS reaction rate with or without 10 uM glyphosate, 4N", "details": "pH 7; read-out: Reaction rate with 10 μM glyph, % no glyph"}, "[3]": {"biological_target": "T1, Zea mays EPSPS variant Zm-H6 (868-H6) with A69V (H6-A69V) (Zea mays, UniProt O24566, A1R/A3W/A415G/A68V/A71Q/D401G/E301S/E390G/G101A/I207L/K83R/L97C/T278A/T360S/T440Q/V437R)", "T1 sequence (O24566 with tags, fused parts or gaps A1R/A3W/A68V/A71Q/K83R/L97C/G101A/I207L/T278A/E301S/T360S/E390G/D401G/A415G/V437R/T440Q)": "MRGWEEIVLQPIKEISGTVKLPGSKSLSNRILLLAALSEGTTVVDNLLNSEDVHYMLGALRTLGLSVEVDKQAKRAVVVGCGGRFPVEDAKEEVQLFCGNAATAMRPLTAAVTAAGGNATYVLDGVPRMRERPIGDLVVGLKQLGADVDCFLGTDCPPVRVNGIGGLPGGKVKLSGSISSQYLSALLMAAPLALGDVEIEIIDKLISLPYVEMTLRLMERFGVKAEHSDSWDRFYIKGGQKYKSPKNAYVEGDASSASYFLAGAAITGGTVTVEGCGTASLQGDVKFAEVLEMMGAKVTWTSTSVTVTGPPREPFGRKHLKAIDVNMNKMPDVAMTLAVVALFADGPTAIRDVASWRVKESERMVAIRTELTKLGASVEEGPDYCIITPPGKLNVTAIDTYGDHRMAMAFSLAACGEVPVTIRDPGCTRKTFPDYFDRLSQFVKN", "assay": "Rapid two-rate method for (kcat/KM)*KI, H6-A69V", "details": "[E] 0.07 uM, [Gly] 1000 uM", "excerpt": "as §1, §2"}, "[4]": {"biological_target": "T2, Zea mays EPSPS variant Zm-H6 (868-H6) with A76V (H6-A76V) (Zea mays, UniProt O24566, A1R/A3W/A415G/A71Q/A75V/D401G/E301S/E390G/G101A/I207L/K83R/L97C/T278A/T360S/T440Q/V437R)", "T2 sequence (O24566 with tags, fused parts or gaps A1R/A3W/A71Q/A75V/K83R/L97C/G101A/I207L/T278A/E301S/T360S/E390G/D401G/A415G/V437R/T440Q)": "T1 sequence (O24566 with tags, fused parts or gaps A1R/A3W/A68V/A71Q/K83R/L97C/G101A/I207L/T278A/E301S/T360S/E390G/D401G/A415G/V437R/T440Q) with V69A, A76V", "assay": "Substrate saturation kinetic analysis with glyphosate, H6-A76V"}}, "note": "Numbering of substitutions follows the chain as printed. Wherever Reaction rate with 10 μM glyph, % no glyph is given: 50 µM PEP and S3P.", "data": [{"smiles": "O=C(O)CNCP(=O)(O)O", "note": "[glyphosate, N-phosphonomethylglycine]", "values": [{"measurement": "(kcat/KM)*KI", "setting": "[1]", "result": 3596}, {"measurement": "activity at 10 µM", "setting": "[2]", "result": 7.56, "unit": "%"}, {"measurement": "(kcat/KM)*KI", "setting": "[3]", "result": 2977}, {"measurement": "Ki", "setting": "[4]", "result": 538, "unit": "µM"}, {"measurement": "(kcat/KM)*KI", "setting": "[4]; substrate saturation, H6-A76V", "result": 2490}]}]}
